The subject of series [1] is PGP production by CF sputum on type I collagen. The series can be described thus: Ex vivo collagen assay: PGP generation by pooled CF sputum with inhibitors. It counts as biochemical, human. As to the method: (§1) Electrospray ionization liquid chromatography-MS/MS. (ESI-LC/MS/MS) for PGP detection PGP and N-α-PGP were measured for in vitro and sputum samples using a MDS Sciex (Applied Biosystems, Foster City, Calif.) API-4000 spectrometer equipped with a Shimadzu HPLC. HPLC was done using a 2.1×150-mm Develosi C30 column (with buffer A: 0.1% formic acid, and buffer B: acetonitrile plus 0.1% formic acid); at 0-0.6 min, 80% buffer A/20% buffer B and at 0.6-5 min, the gradient is up to 0% buffer A/100% buffer B. Background was removed by flushing with 100% isopropanol plus 0.1% formic acid. Positive electrospray mass transitions were at 270-70 and 270-116 for PGP and 312-140 and 312-112 for N-α-PGP.
Ex vivo collagen assay. One hundred microliters of saline-diluted sputum was incubated with extensively dialyzed, intact type I or II collagen (50 μl, 1 mg/ml) for 24 h at 37° C. and 5% CO2. The samples were filtered through a 10-kDa filter, washed with 20 μl of 1 N HCl, and analyzed using ESI-LC-MS/MS for levels of PGP and N-αPGP. Amounts of PGP and N-α-PGP generated by each sputum sample were determined by subtracting basal levels already present in each sample.
For the inhibitor experiments, these pooled sputa were treated with noted inhibitor and allowed to incubate for 6 h. At 6 h, dialyzed collagen was added to the sample and sample was further incubated for 18 h. Inhibitor concentrations used were: MMP-8, -9, and -2 at 50 μM, PE at 100 μM, and doxycycline at 1 mM.

Series [2] has as its system neutrophil. As to conditions: in vitro; cited from earlier work.
Series [3] concerns PGP production in murine airways. The series can be described thus: In vivo murine intratracheal protease administration, PGP in bronchoalveolar lavage fluid. Also noted: species or system BALB/c mice. The note with it: 50 μl, lavage 24 h later, ESI LC-MS/MS, vs PBS control. As to the method: In vivo PGP production was examined using MMPs or human neutrophil elastase (HNE) with or without PE. Various proteases (50 μl) were administered intratracheally into murine (4- to 6-wk-old BALB/c mice) airways and bronchoalveolar lavage fluid was collected 24 h later. PGP levels were determined using ESI LC-MS/MS. […] Number of mice per group=6.
as §1
In vivo murine administration. Mice underwent intratracheal protease administration as described in FIG. 5 legend. MMPs were preactivated using 1 mM aminophenylmercuric acetate for 2 hours at 37° C. The concentrations of proteases administered were: MMP-8, MMP-9, and MMP-12: 55.6 μg/kg; HNE: 200 μg/kg; and PE: 18.4 mg/kg. […]

“Also recorded” adds a separate entry of the source. Residues, ends and D or L forms follow the SMILES beside them. *: point of attachment. Cbz = O=C(OCc1ccccc1)*

Turning to `CC(C)(C)C(=O)Oc1ccc(S(=O)(=O)Nc2ccccc2C(=O)NCC(=O)O)cc1` [HNE-specific inhibitor, N-(2-(4-(2,2-dimethylpropionyloxy)phenylsulfonylamino)benzoyl)aminoacetic acid N-(o-(p-pivaloyloxybenzene)sulfonylaminobenzoyl) glycine], in series [1] (HNE inhibitor, concentration not given, pooled CF sputum, type I collagen), the “inhibition of PGP production compared with CF sputum alone” value was “minimal effects; also recorded: Neither MMP-2-nor HNE-specific inhibitors resulted in significant changes”.
For `CCCCCCCC/C=C\CCCCCCCC(=O)NO` [MMP-2-specific inhibitor, cis-9-octadecenoyl-N-hydroxylamide], in series [1] (MMP-8, -9, -2 inhibitors at 50 μM, 6 h with pooled CF sputum, then type I collagen, 50 µM), the “inhibition of PGP production compared with CF sputum alone” value is “minimal effects; also recorded: Neither MMP-2-nor HNE-specific inhibitors resulted in significant changes”.
For `O=CC1CCCN1C(=O)C1CCCN1C(=O)OCc1ccccc1` (stereo not drawn) [PE inhibitor, Z-prolyl prolinal] (Cbz-Pro-Pro-aldehyde; configuration not given here), in series [1] (PE inhibitor at 100 μM, 6 h with pooled CF sputum, then type I collagen, 100 µM), the “inhibition of PGP production compared with CF sputum alone” value was “completely blocked; also recorded: complete blockade”.
For the molecule proline-glycine-proline [PGP], the “potency as neutrophil chemoattractant relative to N-α-PGP” value in series [2] is reported as “four to seven times less potent”.

B1: HNE: Recombinant human neutrophil elastase (protein, UniProt P08246 30-267, looked up)
Neutrophil elastase: IVGGRRARPHAWPFMVSLQLRGGHFCGATLIAPNFVMSAAHCVANVNVRAVRVVLGAHNLSRREPTRQVFAVQRIFENGYDPVNLLNDIVILQLNGSATINANVQVAQLPAQGRRLGNGVQCLAMGWGLLGRNRGIASVLQELNVTVVTSLCRRSNVCTLVRGRQAGVCFGDSGSPLVCNGLIHGIASFVRGGCASGLYPDAFAPVAQFVNWIDSIIQRSEDNPCPHPRDPDPASRTH
On to B1, for which the “PGP production in bronchoalveolar lavage fluid” value in series [3] was “did not generate PGP”.
